Results from patent US20250304563A1, “ACTIVATORS OF EFFECTOR T CELLS” (Orum Therapeutics, Inc., priority 2022, published 2025).
pIC50: −log10 of the molar value.

How the values were obtained:
Human primary T cells [1] = assay: T cell activation: CD69 surface expression by flow cytometry; format: cell-based; conditions: fold over anti-CD3 stimulated background normalized to Compound 141A; for CD69 10 nM: 10 nM compound; for CD69 100 nM: 100 nM compound
In short: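 Negatively selected human primary T cells (1×10^5/well, XVivo-15) were captured on plates coated with 10 μg/mL anti-CD3 (OKT3). They were exposed to serially diluted compounds in duplicate for 48 h at 37° C. CD69 was read by flow cytometry as fold over anti-CD3-only background, normalized to Compound 141A and binned into ranges.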

[2] = target: Cbl-b (36-427 aa truncated form, N-terminus Avi-tag) (Homo sapiens (Human), UniProt Q13191); assay: Cbl-b binding: TR-FRET displacement of BODIPY-FL probe
In short: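 Avi-tagged Cbl-b 36-427 preincubated 1 h at RT with streptavidin-terbium in HEPES pH 7.5/NaCl/Triton/BSA/TCEP buffer, then 1 uM BODIPY-FL inhibitor probe plus compound added for 1 h. Probe displacement read by TR-FRET; IC50 fitted.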

Human primary T cells [3] = assay: T cell activation: secreted IL-2; format: cell-based; conditions: 48 hours, fold over background normalized to Compound 141A; for IL-2 1 nM: 1 nM compound; for IL-2 10 nM: 10 nM compound; for IL-2 100 nM: 100 nM compound
In short: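 Negatively selected human primary T cells on plate-bound anti-CD3 (OKT3) in serum-free medium, treated 48 h at 37° C. with serial compound dilutions in duplicate. Secreted IL-2 by bead-based cytometric assay, expressed as fold over anti-CD3/CD28 background normalized to a reference compound, then binned into ranges.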

Human primary T cells [4] = assay: T cell activation: secreted IFN-y; format: cell-based; conditions: 48 hours, fold over background normalized to Compound 141A; for IFN-y 1 nM: 1 nM compound; for IFN-y 10 nM: 10 nM compound; for IFN-y 100 nM: 100 nM compound
In short: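 Negatively selected primary human T cells (1×10^5/well, serum-free XVivo-15) on plates coated with 10 μg/mL anti-CD3 were exposed to serial compound dilutions for 48 h at 37 °C. Secreted IFN-γ was measured by cytometric bead array and expressed as fold over anti-CD3/CD28 background, normalized to a reference compound and binned into ranges A–D.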

Sequence of Cbl-b (36-427 aa truncated form, N-terminus Avi-tag) (Q13191 36-427): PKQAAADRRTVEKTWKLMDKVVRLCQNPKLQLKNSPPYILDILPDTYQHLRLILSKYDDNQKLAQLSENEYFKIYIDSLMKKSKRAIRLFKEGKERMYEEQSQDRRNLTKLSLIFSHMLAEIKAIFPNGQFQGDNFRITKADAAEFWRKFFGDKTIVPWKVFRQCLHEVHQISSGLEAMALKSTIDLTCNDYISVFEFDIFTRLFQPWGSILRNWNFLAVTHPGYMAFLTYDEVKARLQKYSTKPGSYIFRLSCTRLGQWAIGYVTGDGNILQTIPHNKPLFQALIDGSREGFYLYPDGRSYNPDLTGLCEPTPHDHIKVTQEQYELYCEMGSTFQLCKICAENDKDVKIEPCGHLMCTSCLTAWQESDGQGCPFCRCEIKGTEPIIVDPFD

Compound | CD69 10 nM (Human primary T cells [1]) | CD69 100 nM (Human primary T cells [1]) | pIC50 [2] | IL-2 1 nM (Human primary T cells [3]) | IL-2 10 nM (Human primary T cells [3]) | IL-2 100 nM (Human primary T cells [3]) | IFN-y 1 nM (Human primary T cells [4]) | IFN-y 10 nM (Human primary T cells [4]) | IFN-y 100 nM (Human primary T cells [4])
C[C@H]1CCCN(Cc2cc3c(c(C(F)(F)F)c2)CN(c2cc(C4(Cc5nncn5C)COC4)cc(NCCN=[N+]=[N-])n2)C3=O)C1 [Compound 118, 2-{6-[(2-azidoethyl)amino]-4-{3-[(4-methyl-1,2,4-triazol-3-yl)methyl]oxetan-3-yl}pyridin-2-yl}-6-{[(3S)-3-methylpiperidin-1-yl]methyl}-4-(trifluoromethyl)-3H-isoindol-1-one] | A (values between 0.81 and 1.10: range “A”) | A (values between 0.81 and 1.10: range “A”) | 8.30 to 9.00 | B (values between 0.31 and 0.79: range “B”) | B (values between 0.31 and 0.79: range “B”) | A (between 0.80 and 1.40: range “A”) | B (values between 0.31 and 1.00: range “B;”) | A (fold over background between 1.10 and 2.00: range “A”) | A (fold over background between 1.10 and 2.00: range “A”)
C[C@H]1CCCN(Cc2cc3c(c(C(F)(F)F)c2)CN(c2cc(C4(Cc5nncn5C)COC4)cc(NCC#N)n2)C3=O)C1 [Compound 119, (S)-2-((4-(3-((4-methyl-4H-1,2,4-triazol-3-yl)methyl)oxetan-3-yl)-6-(6-((3-methylpiperidin-1-yl)methyl)-1-oxo-4-(trifluoromethyl)isoindolin-2-yl)pyridin-2-yl)amino)acetonitrile] | B (values between 0.61 and 0.80: range “B;”) | A (values between 0.81 and 1.10: range “A”) | 8.30 to 9.00 | C (values between 0.10 and 0.30: range “C”) | B (values between 0.31 and 0.79: range “B”) | B (values between 0.31 and 0.79: range “B”) | C (values between 0.10 and 0.30: range “C”) | B (values between 0.31 and 1.00: range “B;”) | B (values between 0.31 and 1.00: range “B;”)
C[C@H]1CCCN(Cc2cc3c(c(C(F)(F)F)c2)CN(c2cc(C4(Cc5nncn5C)COC4)cc(SCC(O)CO)n2)C3=O)C1.O=CO (stereo partly drawn) [Compound 120, 2-{6-[(2,3-dihydroxypropyl)sulfanyl]-4-{3-[(4-methyl-1,2,4-triazol-3-yl)methyl]oxetan-3-yl}pyridin-2-yl}-6-{[(3S)-3-methylpiperidin-1-yl]methyl}-4-(trifluoromethyl)-3H-isoindol-1-one; formic acid] | C (values between 0.30 and 0.60: range “C”) | C (values between 0.30 and 0.60: range “C”) | 7.00 to 7.70 | C (values between 0.10 and 0.30: range “C”) | C (values between 0.10 and 0.30: range “C”) | C (values between 0.10 and 0.30: range “C”) | C (values between 0.10 and 0.30: range “C”) | C (values between 0.10 and 0.30: range “C”) | C (values between 0.10 and 0.30: range “C”)
C=CC(=O)N1CCN(c2cc(C3(Cc4nncn4C)COC3)cc(N3Cc4c(cc(CN5CCC[C@H](C)C5)cc4C(F)(F)F)C3=O)n2)CC1 [Compound 121, (S)-2-(6-(4-acryloylpiperazin-1-yl)-4-(3-((4-methyl-4H-1,2,4-triazol-3-yl)methyl)oxetan-3-yl)pyridin-2-yl)-6-((3-methylpiperidin-1-yl)methyl)-4-(trifluoromethyl)isoindolin-1-one] | C (values between 0.30 and 0.60: range “C”) | A (values between 0.81 and 1.10: range “A”) | 7.00 to 7.70 | C (values between 0.10 and 0.30: range “C”) | C (values between 0.10 and 0.30: range “C”) | B (values between 0.31 and 0.79: range “B”) | C (values between 0.10 and 0.30: range “C”) | C (values between 0.10 and 0.30: range “C”) | B (values between 0.31 and 1.00: range “B;”)
C[C@H]1CCCN(Cc2cc3c(c(C(F)(F)F)c2)CN(c2cc(C4(Cc5nncn5C)COC4)cc(OCCCC#N)n2)C3=O)C1.O=C(O)C(F)(F)F [Compound 122, 4-[(4-{3-[(4-methyl-1,2,4-triazol-3-yl)methyl]oxetan-3-yl}-6-(6-{[(3S)-3-methylpiperidin-1-yl]methyl}-1-oxo-4-(trifluoromethyl)-3H-isoindol-2-yl)pyridin-2-yl)oxy]butanenitrile; trifluoroacetic acid] | B (values between 0.61 and 0.80: range “B;”) | A (values between 0.81 and 1.10: range “A”) | 8.30 to 9.00 | C (values between 0.10 and 0.30: range “C”) | B (values between 0.31 and 0.79: range “B”) | B (values between 0.31 and 0.79: range “B”) | C (values between 0.10 and 0.30: range “C”) | B (values between 0.31 and 1.00: range “B;”) | B (values between 0.31 and 1.00: range “B;”)
CC(C)C(C#N)Oc1cc(C2(Cc3nncn3C)COC2)cc(N2Cc3c(cc(CN4CCC[C@H](C)C4)cc3C(F)(F)F)C2=O)n1.O=CO (stereo partly drawn) [Compound 123, 3-methyl-2-[(4-{3-[(4-methyl-1,2,4-triazol-3-yl)methyl]oxetan-3-yl}-6-(6-{[(3S)-3-methylpiperidin-1-yl]methyl}-1-oxo-4-(trifluoromethyl)-3H-isoindol-2-yl)pyridin-2-yl)oxy]butanenitrile; formic acid] | C (values between 0.30 and 0.60: range “C”) | B (values between 0.61 and 0.80: range “B;”) | 8.30 to 9.00 | C (values between 0.10 and 0.30: range “C”) | C (values between 0.10 and 0.30: range “C”) | B (values between 0.31 and 0.79: range “B”) | C (values between 0.10 and 0.30: range “C”) | C (values between 0.10 and 0.30: range “C”) | B (values between 0.31 and 1.00: range “B;”)
C[C@H]1CCCN(Cc2cc3c(c(C(F)(F)F)c2)CN(c2cc(C4(Cc5nncn5C)COC4)cc(SCCC(=O)O)n2)C3=O)C1 [Compound 124, 3-[(4-{3-[(4-methyl-1,2,4-triazol-3-yl)methyl]oxetan-3-yl}-6-(6-{[(3S)-3-methylpiperidin-1-yl]methyl}-1-oxo-4-(trifluoromethyl)-3H-isoindol-2-yl)pyridin-2-yl)sulfanyl]propanoic acid] | C (values between 0.30 and 0.60: range “C”) | C (values between 0.30 and 0.60: range “C”) | 6.00 to 7.00 | C (values between 0.10 and 0.30: range “C”) | C (values between 0.10 and 0.30: range “C”) | C (values between 0.10 and 0.30: range “C”) | C (values between 0.10 and 0.30: range “C”) | C (values between 0.10 and 0.30: range “C”) | C (values between 0.10 and 0.30: range “C”)
